One test concerns the target T1, CKL12 (AT5G57015) (Arabidopsis thaliana, UniProt Q8VYK9).
T1 construct: from tissue; host or cells: Arabidopsis seedlings, two weeks old
The test can be described thus: AMI‐329 bead binding with AMI‐331 competitor, CKL12. The method, then:
(§1) Screening for proteins bound to AMI‐329 beads was done by a method similar to what has previously been described (Uehara et al., 2019). Briefly, two‐week‐old seedlings grown under LD conditions were harvested at time points ZT2, ZT6, ZT9, and ZT17, and stored at −80°C. Proteins from the frozen plant samples were incubated with 0, 5, or 50 µM of AMI‐331 at 4°C for 30 min with rotary mixing. Two technical replicates were used for each experiment. PBS‐washed AMI‐329 beads were added to the protein samples and gently rotated at 4°C for 1 hr. AMI‐329 bead resins were washed with bead buffer (Uehara et al., 2019) six times. The washed resins were suspended in SDS sample buffer and boiled for 8 min. Protein samples were in‐gel‐digested as previously described (Uehara et al., 2019). Peptides were analyzed with a Q Exactive hybrid quadrupole‐orbitrap mass spectrometer (Thermo Fisher Scientific), as described previously (Uehara et al., 2019). […]
(§2) However, another possible mechanism for the strong AMI‐331 biological activity in vivo is that it targets proteins other than the CK1 family for period lengthening. […] It is noteworthy that kinase AT4G08800 is very similar to the CKL family, but the ATP‐binding pocket of mammalian CK1 as determined by its crystal structure (Shinohara et al., 2017) was absent from AT4G08800, as shown in an Araport 11 model (https://www.araport.org). […]

In the next test the target is T2, Reductase C (AT2G41680) (Arabidopsis thaliana, UniProt O22229).
T2 construct: Proteins from the frozen plant samples were incubated with 0, 5, or 50 µM of AMI‐331; from tissue; host or cells: two-week-old Arabidopsis seedlings (protein lysate)
The experiment in a line: AMI‐329 bead binding with AMI‐331 competitor, reductase C. How it is done: as §1, §2

The target in another test is T3, CKL11 (AT4G14340) (Arabidopsis thaliana, UniProt Q39050).
T3 construct: from tissue; host or cells: Arabidopsis seedlings, two weeks old
The experiment in a line: AMI‐329 bead binding with AMI‐331 competitor, CKL11. How it is done:
as §1, §2

Test [1] deals with ATSK (GSK3) family proteins. The experiment in a line: AMI‐329 bead binding with AMI‐331 competitor, ATSK family. Set-up: species or system Arabidopsis thaliana. The following applies: 50 µM AMI‐331 as competitor. The method, then: (§3) Screening for proteins bound to AMI‐329 beads was done by a method similar to what has previously been described (Uehara et al., 2019). Briefly, two‐week‐old seedlings grown under LD conditions were harvested at time points ZT2, ZT6, ZT9, and ZT17, and stored at −80°C. Proteins from the frozen plant samples were incubated with 0, 5, or 50 µM of AMI‐331 at 4°C for 30 min with rotary mixing. Two technical replicates were used for each experiment. PBS‐washed AMI‐329 beads were added to the protein samples and gently rotated at 4°C for 1 hr. AMI‐329 bead resins were washed with bead buffer (Uehara et al., 2019) six times. The washed resins were suspended in SDS sample buffer and boiled for 8 min. Protein samples were in‐gel‐digested as previously described (Uehara et al., 2019). Peptides were analyzed with a Q Exactive hybrid quadrupole‐orbitrap mass spectrometer (Thermo Fisher Scientific), as described previously (Uehara et al., 2019). MS/MS spectra were interpreted, and peak lists were generated using Proteome Discoverer 2.0.0.802 (Thermo Fisher Scientific). Searches were performed using SEQUEST (Thermo Fisher Scientific) against the Arabidopsis thaliana (TAIR TaxID = 3,702) peptide sequence database. […]
(§4) To examine other potential targets of AMI‐331, we analyzed the spectra for PHA767491 target proteins (Uehara et al., 2019). […]

The target of a further test is T4, HYD1 (AT1G20050) (Arabidopsis thaliana, UniProt O48962).
T4 construct: from tissue; host or cells: Arabidopsis seedlings, two weeks old
The test can be described thus: AMI‐329 bead binding with AMI‐331 competitor, HYD1. The method, then:
as §1, §2

In the next test the target is T5, YAK1 (AT5G35980) (Arabidopsis thaliana, UniProt Q8RWH3).
T5 construct: Proteins from the frozen plant samples were incubated with 0, 5, or 50 µM of AMI‐331; from tissue; host or cells: two-week-old Arabidopsis seedlings (protein lysate)
The test can be described thus: AMI‐329 bead binding with AMI‐331 competitor, YAK1. The method, then: as §1, §2

The next test concerns Unknown AT5G42765. The test can be described thus: AMI‐329 bead binding with AMI‐331 competitor, unknown protein AT5G42765. Details: species or system Arabidopsis thaliana. How it is done:
as §1, §2

The target of the next test is T6, CKL10 (AT3G23340) (Arabidopsis thaliana, UniProt Q9LW62).
T6 construct: from tissue; host or cells: Arabidopsis seedlings, two weeks old
The experiment in a line: AMI‐329 bead binding with AMI‐331 competitor, CKL10. How it is done: as §1, §2

The test system of another test is MPK family. The experiment in a line: AMI‐329 bead binding with AMI‐331 competitor, MPK family. Set-up: species or system Arabidopsis thaliana. How it is done:
as §3, §4

Experimental findings from paper PMC6747015, “Structure–function study of a novel inhibitor of the casein kinase 1 family in Arabidopsis thaliana” (Plant Direct, 2019) are described below.

T2 sequence (O22229 68-529): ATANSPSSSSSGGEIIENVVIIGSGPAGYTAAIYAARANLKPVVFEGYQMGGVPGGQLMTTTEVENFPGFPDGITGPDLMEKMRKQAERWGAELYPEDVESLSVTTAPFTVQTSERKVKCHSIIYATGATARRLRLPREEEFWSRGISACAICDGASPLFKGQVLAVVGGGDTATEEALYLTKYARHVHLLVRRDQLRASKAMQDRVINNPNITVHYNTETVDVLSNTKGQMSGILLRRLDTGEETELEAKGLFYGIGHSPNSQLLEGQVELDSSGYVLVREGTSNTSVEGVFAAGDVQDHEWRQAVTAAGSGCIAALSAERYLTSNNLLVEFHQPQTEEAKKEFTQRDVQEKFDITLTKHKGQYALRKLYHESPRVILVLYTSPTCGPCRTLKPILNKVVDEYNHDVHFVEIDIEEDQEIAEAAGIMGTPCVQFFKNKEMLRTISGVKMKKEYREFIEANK
T4 sequence (O48962 whole entry): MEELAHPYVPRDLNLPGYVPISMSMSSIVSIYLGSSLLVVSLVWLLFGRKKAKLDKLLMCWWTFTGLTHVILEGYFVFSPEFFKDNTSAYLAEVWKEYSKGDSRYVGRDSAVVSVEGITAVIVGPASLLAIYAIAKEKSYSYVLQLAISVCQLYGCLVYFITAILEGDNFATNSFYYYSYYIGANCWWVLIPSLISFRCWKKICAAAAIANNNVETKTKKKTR
T3 sequence (Q39050 whole entry): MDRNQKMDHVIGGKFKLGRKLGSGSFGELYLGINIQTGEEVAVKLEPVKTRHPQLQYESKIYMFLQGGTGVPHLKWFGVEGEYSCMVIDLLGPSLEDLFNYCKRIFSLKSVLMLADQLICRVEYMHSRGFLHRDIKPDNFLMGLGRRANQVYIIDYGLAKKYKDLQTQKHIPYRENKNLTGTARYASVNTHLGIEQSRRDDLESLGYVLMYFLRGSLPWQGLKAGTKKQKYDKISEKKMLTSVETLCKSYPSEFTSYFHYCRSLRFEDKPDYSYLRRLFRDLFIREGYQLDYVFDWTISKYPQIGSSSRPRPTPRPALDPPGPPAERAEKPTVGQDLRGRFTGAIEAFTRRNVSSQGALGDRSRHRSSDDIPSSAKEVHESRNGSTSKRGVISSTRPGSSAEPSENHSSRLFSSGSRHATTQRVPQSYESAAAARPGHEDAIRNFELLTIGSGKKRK
T5 sequence (Q8RWH3 whole entry): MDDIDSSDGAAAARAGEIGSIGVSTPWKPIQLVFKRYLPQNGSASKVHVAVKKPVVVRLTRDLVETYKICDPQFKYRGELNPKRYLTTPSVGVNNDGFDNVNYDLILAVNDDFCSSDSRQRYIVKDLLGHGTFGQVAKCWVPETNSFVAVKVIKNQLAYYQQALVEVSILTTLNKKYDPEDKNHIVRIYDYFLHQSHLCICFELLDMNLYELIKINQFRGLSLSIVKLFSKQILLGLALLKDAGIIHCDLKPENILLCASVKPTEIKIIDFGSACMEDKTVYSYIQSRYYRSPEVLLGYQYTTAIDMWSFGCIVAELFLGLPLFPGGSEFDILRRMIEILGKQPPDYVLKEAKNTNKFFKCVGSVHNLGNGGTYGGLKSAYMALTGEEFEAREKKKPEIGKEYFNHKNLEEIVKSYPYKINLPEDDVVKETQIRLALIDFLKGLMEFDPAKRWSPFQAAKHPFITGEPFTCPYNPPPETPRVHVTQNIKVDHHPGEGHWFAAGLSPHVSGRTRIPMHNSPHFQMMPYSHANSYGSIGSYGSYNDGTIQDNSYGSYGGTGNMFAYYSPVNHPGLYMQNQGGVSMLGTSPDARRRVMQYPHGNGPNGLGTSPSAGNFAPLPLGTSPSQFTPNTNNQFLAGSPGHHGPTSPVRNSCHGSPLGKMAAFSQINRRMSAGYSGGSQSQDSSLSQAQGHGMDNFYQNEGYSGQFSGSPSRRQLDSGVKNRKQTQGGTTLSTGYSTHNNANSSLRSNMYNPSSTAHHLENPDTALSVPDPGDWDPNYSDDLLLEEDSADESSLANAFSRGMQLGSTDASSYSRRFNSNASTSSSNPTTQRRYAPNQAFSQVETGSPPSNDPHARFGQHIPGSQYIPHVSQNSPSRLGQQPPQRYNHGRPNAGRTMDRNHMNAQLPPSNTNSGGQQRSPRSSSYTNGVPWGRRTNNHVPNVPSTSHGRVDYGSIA
T6 sequence (Q9LW62 whole entry): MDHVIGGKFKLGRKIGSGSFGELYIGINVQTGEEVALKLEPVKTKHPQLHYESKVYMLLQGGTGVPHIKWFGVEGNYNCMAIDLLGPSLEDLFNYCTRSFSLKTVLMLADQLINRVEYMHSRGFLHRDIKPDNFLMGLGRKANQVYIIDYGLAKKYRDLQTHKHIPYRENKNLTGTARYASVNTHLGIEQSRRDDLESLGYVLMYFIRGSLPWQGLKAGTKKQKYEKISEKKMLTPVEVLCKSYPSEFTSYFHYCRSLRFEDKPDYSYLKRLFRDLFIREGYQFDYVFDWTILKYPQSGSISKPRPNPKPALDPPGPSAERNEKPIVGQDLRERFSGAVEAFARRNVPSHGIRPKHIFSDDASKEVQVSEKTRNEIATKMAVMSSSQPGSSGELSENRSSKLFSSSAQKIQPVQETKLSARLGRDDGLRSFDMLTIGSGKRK
T1 sequence (Q8VYK9 whole entry): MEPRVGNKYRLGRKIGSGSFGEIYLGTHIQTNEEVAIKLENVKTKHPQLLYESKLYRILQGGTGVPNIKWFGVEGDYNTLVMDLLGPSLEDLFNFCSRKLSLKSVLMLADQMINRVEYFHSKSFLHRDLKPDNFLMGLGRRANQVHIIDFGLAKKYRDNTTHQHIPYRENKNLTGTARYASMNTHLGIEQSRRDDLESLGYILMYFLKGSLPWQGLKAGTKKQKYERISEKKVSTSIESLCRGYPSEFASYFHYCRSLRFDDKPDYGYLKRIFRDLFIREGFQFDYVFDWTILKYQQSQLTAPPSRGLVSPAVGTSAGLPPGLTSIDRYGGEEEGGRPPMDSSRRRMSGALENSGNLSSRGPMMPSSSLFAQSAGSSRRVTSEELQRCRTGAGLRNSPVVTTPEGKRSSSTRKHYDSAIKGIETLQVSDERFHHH

With `C#CCn1c2c(c(Br)c1-c1ccncc1)C(=O)NCC2.Cl` [AMI‐331], the “Spectra (PSMs) AMI‐329 beads bound” value at CKL12 (AT5G57015) (competitor AMI‐331 5 µM) stood at 2 PSMs; on CKL12 (AT5G57015) (competitor AMI‐331 50 µM) it was 0 PSMs; at Reductase C (AT2G41680) (competitor AMI‐331 5 µM), 0 PSMs; at Reductase C (AT2G41680) (competitor AMI‐331 50 µM), 0 PSMs; at CKL11 (AT4G14340) (competitor AMI‐331 5 µM), 1 PSMs; at CKL11 (AT4G14340) (competitor AMI‐331 50 µM), 0 PSMs. The “Spectra (PSMs) AMI‐329 beads bound” value on HYD1 (AT1G20050) (competitor AMI‐331 5 µM), on HYD1 (AT1G20050) (competitor AMI‐331 50 µM), on YAK1 (AT5G35980) (competitor AMI‐331 5 µM), at YAK1 (AT5G35980) (competitor AMI‐331 50 µM), in the test on Unknown AT5G42765 (competitor AMI‐331 5 µM) and in the test with Unknown AT5G42765 (competitor AMI‐331 50 µM) was 0 PSMs each time. Also, the “Spectra (PSMs) AMI‐329 beads bound” value on CKL10 (AT3G23340) (competitor AMI‐331 5 µM) was found to be 1 PSMs; on CKL10 (AT3G23340) (competitor AMI‐331 50 µM), 0 PSMs. Also, the entries for the “Spectra on AMI‐329 beads relative to 0 µM sample” value (in [1]; in the test with MPK family (5 µM AMI‐331 as competitor); in the test with MPK family (50 µM AMI‐331 as competitor)) were 0%–13%, 13%–85% and 0%–31%, respectively.
